Assay results reported in US20240065261A1, “PENETRATING CRYOPROTECTION AGENTS AND METHODS OF MAKING AND USING SAME” (The Research Foundation for The State University of New York, priority 2020, published 2024).
“And” between values parts separate entries of the source, which are not always exact repeats. Identical values can stand only once.

How the values were obtained:
[1] = tested on: NIH-3T3 cells; test: Post-thaw viability of cryopreserved NIH-3T3 cells (CCK-8), Example 1; format: cell-based; settings: for Post-thaw viability, 24 hours post thaw / Post-thaw viability, 48 hours post-thaw: Table 1
Method: Cryopreservation protocol. […] Discarded 95% of the old media and added 0.5 mL new DMEM (pH=7.4) with 10% FBS and 400 mM trehalose (filtered with 0.22 μm filter) and re-suspended the cells. • Transferred the cell culture to cryo-tube and stored the tubes at −80° C. for 3 days. • Thawed the cells at 37° C. in a water bath until ice melted. • Counted the cell density in each cryo-tube with cell counter. • Re-cultured the cells in 96-well plate with fresh DMEM (PH=7.4) with 10% FBS. (while keeping cell density the approximately the same for each well). • Used CCK-8 kit to test the post-thaw viability after certain time.

[2] = tested on: NIH-3T3 cells; test: Cytotoxicity, CCK-8 cell viability after 48 h incubation
Method: Cytotoxicity assays were performed by exposing NIH-3T3 cells to the diesters. Cell viability was determined by using Cell Counting Kit-8 (CCK-8) reagent and a BioTek microplate reader to count the numbers of live and dead cells.
NIH/3T3 cells were seeded into 96-well plates (Fisher brand) at a density of 8,000 cells in 150 μL growth medium per well. The cells were incubated for 24 hours at 37° C. with 5% CO2. After 24 hours all medium was aspired one row at a time and treated with various concentrations of each compound (10 mM, 5 mM, 1 mM, 0.5 mM and 0.1 mM) or carboxylic acid/NaOH (10 mM/5 mM, 5 mM/2.5 mM). The control cells were treated with fresh medium only. The cells were then incubated again for 48 hours at 37° C. with 5% CO2. After incubation, all medium was aspired and replaced with fresh medium and 10% (v/v) CCK-8 reagent and returned to incubate at 37° C. with 5% CO2 for 2 hours. Cell viability was then calculated from the OD value read by a plate reader (Biotek Synergy H1) at wavelength of 450 nm.

[3] = tested on: NIH-3T3 cells; test: Post-thaw total cell recovery of cryopreserved cells (trypan blue exclusion); format: cell-based; settings: ±SEM
Method: The delivery of sugar alcohols into cells makes it possible to turn these molecules into intracellular CPAs. […] Total post-thaw cell recovery, defined as the ratio (%) of post-thaw live cells to the number of initially frozen live cells, which provides a more accurate measure of cryoprotective outcome than cell viability, was used to assess the cryoprotective effects of the diesters.
Systematic studies were then performed by incubating the cells (1) with each of diesters 1-4 (10 mM), (2) with unmodified sorbitol, mannitol, xylitol, or erythritol (10 mM), and (3) in medium without any of the diesters or sugar alcohols, at 37° C. for 48 h. The cells treated with diesters 1-4 and the four sugar alcohols were then transferred to freezing media consisting of DMEM, 10% FBS and 400 mM trehalose. The cells incubated with only the medium were divided into two portions, one being directly transferred to the freezing medium containing 400 mM trehalose (control 1) and the other being placed in a different freezing medium consisting of DMEM, 10% FBS and 5% DMSO but without trehalose (control 2). After being frozen at −80° C. for 72 h, the cells were thawed in a warm water bath at 37° C. until ice melted. The post-thaw cells were either immediately analyzed for their survival or were cultured in growth media (DMEM with 10% FBS) for 24 h and 48 h before being analyzed.
Incubation (for cryopreservation). NIH/3T3 cells were seeded into cell culture treated plates (100 mm) at a density of 2×10^4 cells/mL (10 mL/plate), allowed to adhere overnight and then incubated with different sample solutions (10 mL) for 48 hours at 37° C. under 5% CO2. Control cells were incubated with growth medium.
Cryopreservation. At the end of the incubation, the cells were rinsed with PBS (2 mL) and detached using 0.25% trypsin-EDTA (3 mL). The cells were pelleted (200×g, 5 min) and resuspended in growth medium with 400 mM trehalose except for the control-2 group. For control-2 group, cells were resuspended in growth medium with 5% DMSO (v/v). An aliquot of cells of each group was then removed for counting by a DeNovix Celldrop cell counter to obtain prefreeze number of viable cells. The remaining cell suspension was transferred into a 2 mL cryogenic vial. The vials were directly transferred to −80° C. freezer without controlling cooling rate and stored at −80° C. freezer for 3 days. To thaw, cryogenic vials were removed from −80° C. freezer and suspended in a 37° C. water bath until ice melt. To the contents of each vial 1 mL growth medium was added and centrifuged (200×g , 5 min). The supernatant was discarded and cell pellet was resuspended in 1 mL growth cell medium. An aliquot of cell suspension of each group was then removed for counting with a DeNovix Celldrop cell counter to obtain the number of viable cells at 0-hr post-thaw. The remaining cell suspension was split equally and resuspended into two cell culture treated plates (100 mm) with 10 mL growth medium in each plate. The plates were then maintained for either 24 hours or 48 hours at 37° C. under 5% CO2. After being cultured for either 24 hours or 48 hours, the cells were rinsed with PBS (2 mL) and detached using 0.25% trypsin-EDTA (3 mL). The cells were pelleted (200×g, 5 min) and resuspended in growth medium. The cell suspension was then analyzed by DeNovix Celldrop cell counter to obtain number of viable cells at either 24-hr or 48-hr post-thaw.
Trypan Blue Exclusion Assay. For all time points, a sample of cells was mixed 1:1 in 0.4% trypan blue and counted using a DeNovix Celldrop. Cell recovery was calculated as the ratio of viable cells to the number of cells initially frozen.

[4] = tested on: NIH-3T3 cells; test: Live/dead fluorescence microscopy of post-thaw cells (calcein-AM / ethidium homodimer-1); format: cell-based; settings: 24 h post-thaw; incubated with 10 mM for 48 h, frozen in media with 400 mM trehalose (FIG. 14)
Method: DIC and Fluorescence images capturing. NIH/3T3 cells were treated as the same as for cryopreservation experiment and were thawed in a 37° C. water bath until ice melt. Cells in each vial were then pelleted (200×g, 5 min), re-suspended in 1 mL fresh growth medium and plated into 96 well plate and grown for 24 hours. Each well was washed with sterile PBS (100 μL). Sterile PBS (200 μL) containing 2 μM calcein-AM and 4 μM ethidium homodimer-1 (EthD-1) was then added to each well. The 96-well plate was then incubated in a CO2 incubator at 37° C. for 30 min. Fresh cells without freezing were plated at similar density in 96-well plate as comparison. DIC and fluorescence microscopy images were captured at 509 and 580 nm on Axioplan 2 fluorescent microscope (Zeiss [Carl Zeiss], Thornwood, NY) with an Axiocam MRm camera (Zeiss). Axiovision 4 software (Zeiss) was used for image acquisition. Digital images were processed with ImageJ (imagej.nih.gov/ij/).

[5] = tested on: 3T3 cells; test: Cryopreservation, post-thaw recovery rate, Example 3; format: cell-based; settings: incubated with medium only; frozen −80° C. in medium with 5% DMSO
Method: Cryopreservation: The cryopreservation effects of EGL-3Pro and EGL-3Phe were tested on 3T3 cells. The cells were incubated with 5 mM or 10 mM EGL-3Pro or 0.5 mM EGL-3Phe or medium only (two control groups) for 72 hours. After incubation, the cells were detached by treating […] pelleted by centrifuging (200×g). The cells were then resuspended in medium with 400 mM trehalose or 5% DMSO (for control 2 group) in cryovials and a small portion of cell suspension were used for counting pre-freeze cell number. The vials were directly put in −80° C. freezer and stored for at least 3 days. The cells were thawed in 37° C. water bath until ice melt, and resuspended in 10 mL fresh medium and pelleted by centrifuging (200×g). The cells were then resuspended in 1 mL fresh medium and counted by cell counter. The recovery rate was obtained by dividing post-thaw lived cell number by pre-freeze lived cell number.

[6] = Table 3, incubated 36 hours at 5 mM without DMSO, frozen −80° C. 72 hours, 400 mM trehalose, 10% DMSO set as 100%
[7] = Table 3, incubated 36 hours at 10 mM without DMSO, frozen −80° C. 72 hours, 400 mM trehalose, 10% DMSO set as 100%
[8] = incubated at 5 mM without DMSO, frozen −80° C. 72 hours, freezing media with 400 mM trehalose, 10% DMSO set as 100%
[9] = incubated at 10 mM without DMSO, frozen −80° C. 72 hours, freezing media with 400 mM trehalose, 10% DMSO set as 100%
[10] = incubated with 10 mM for 48 h, frozen −80° C. 72 h in media with 400 mM trehalose
[11] = Table 2, incubated 36 hours at 5 mM without DMSO, frozen −80° C. 72 hours, 400 mM trehalose, 10% DMSO set as 100%
[12] = Table 2, incubated 36 hours at 10 mM without DMSO, frozen −80° C. 72 hours, 400 mM trehalose, 10% DMSO set as 100%
[13] = incubated with 10% DMSO, reference set as 100%
[14] = Table 2, incubated with 10% DMSO, reference set as 100%
[15] = Table 3, incubated with 10% DMSO, reference set as 100%
[16] = incubated with media only, frozen in media containing 5% DMSO without trehalose

## CCCC(=O)OC[C@@H](O)[C@@H](O)[C@H](O)[C@@H](O)COC(=O)CCC [SorbBa2]
[1]; [6]
  Post-thaw viability (%), 24 hours post thaw: 113.4 ± 9.5%
  Post-thaw viability (%), 48 hours post-thaw: 143.3 ± 7.4%
[1]; [7]
  Post-thaw viability (%), 24 hours post thaw: 150.4 ± 1.5%
  Post-thaw viability (%), 48 hours post-thaw: 211.8 ± 2.2%

## O=C(OCC(COC(=O)[C@@H]1CCCN1)OC(=O)[C@@H]1CCCN1)[C@@H]1CCCN1 [GLC3P]
[1]; [8]
  Post-thaw viability, 24 hours post thaw: 130.9 ± 5.3%
  Post-thaw viability, 48 hours post-thaw: 143.8 ± 4.2%
[1]; [9]
  Post-thaw viability, 24 hours post thaw: 174.7 ± 6.9%
  Post-thaw viability, 48 hours post-thaw: 220.4 ± 5.5%

## CCC(=O)O [propionic acid]
[2]; up to 10 mM
  Cell viability relative to control groups: ~70%

## OC[C@@H](O)[C@@H](O)CO [Erythritol, erythritol, reference compound]
[3]; [10]
  Post-thaw recovery (%) 0-hr: 33.5 ± 2.7%
  Post-thaw recovery (%) 24-hr: 26.0 ± 0.6%
  Post-thaw recovery (%) 48-hr: 42.3 ± 1.2%

## OC[C@@H](O)[C@@H](O)[C@H](O)[C@@H](O)CO [Sorbitol, sorbitol, reference compound]
[3]; [10]
  Post-thaw recovery (%) 0-hr: 32.8 ± 3.2%
  Post-thaw recovery (%) 24-hr: 28.4 ± 2.1%
  Post-thaw recovery (%) 48-hr: 50.8 ± 3.5%
[4]
  Post-thaw viability/recovery in fluorescence microscopy images: does not result in higher post-thaw viability than cells treated with media only

## CCC(=O)OC[C@@H](O)[C@@H](O)COC(=O)CC [EryPr2]
[3]; [10]
  Post-thaw recovery (%) 0-hr: 48% and 47.9 ± 3.4%
  Post-thaw recovery (%) 24-hr: 42.6 ± 2.6%
  Post-thaw recovery (%) 48-hr: 72% and 71.6 ± 3.9%

## OC[C@@H](O)[C@H](O)[C@@H](O)CO [Xylitol, xylitol, reference compound]
[3]; [10]
  Post-thaw recovery (%) 0-hr: 24.6 ± 2.4%
  Post-thaw recovery (%) 24-hr: 22.1 ± 2.1%
  Post-thaw recovery (%) 48-hr: 44.3 ± 4.7%

## OC[C@@H](O)[C@@H](O)[C@H](O)[C@H](O)CO [Mannitol, mannitol, reference compound]
[3]; [10]
  Post-thaw recovery (%) 0-hr: 24.1 ± 1.8%
  Post-thaw recovery (%) 24-hr: 20.8 ± 1.5%
  Post-thaw recovery (%) 48-hr: 41.5 ± 3.0%
[4]
  Post-thaw viability/recovery in fluorescence microscopy images: does not result in higher post-thaw viability than cells treated with media only

## O=C(OC[C@H](OC(=O)[C@@H]1CCCN1)[C@@H](OC(=O)[C@@H]1CCCN1)[C@H](OC(=O)[C@@H]1CCCN1)[C@@H](COC(=O)[C@@H]1CCCN1)OC(=O)[C@@H]1CCCN1)[C@@H]1CCCN1 [SBT6P]
[1]; [11]
  Post-thaw viability (%), 24 hours post thaw: 33.3 ± 1.4%
  Post-thaw viability (%), 48 hours post-thaw: 66.2 ± 2.0%
[1]; [12]
  Post-thaw viability (%), 24 hours post thaw: 34.0 ± 3.5%
  Post-thaw viability (%), 48 hours post-thaw: 69.6 ± 6.5%

## C[S+](C)[O-] [DMSO, dimethyl sulfoxide, reference compound]
[1]; [13]
  Post-thaw viability, 24 hours post thaw: 100.0 ± 11.8%
  Post-thaw viability, 48 hours post-thaw: 100.0 ± 4.0%
[1]; [14]
  Post-thaw viability (%), 24 hours post thaw: 100.0 ± 3.6%
  Post-thaw viability (%), 48 hours post-thaw: 100.0 ± 13.4%
[1]; [15]
  Post-thaw viability (%), 24 hours post thaw: 100.0 ± 13.5%
  Post-thaw viability (%), 48 hours post-thaw: 100.0 ± 5.3%
[3]; [16]
  Post-thaw recovery (%) 0-hr: 84.5 ± 3.8%
  Post-thaw recovery (%) 24-hr: 93.9 ± 2.4%
  Post-thaw recovery (%) 48-hr: 196.4 ± 5.7%
[5]
  0-hour post thaw recovery (%): 77.9 ± 3.8%

## CCCC(=O)O [butyric acid]
[2]; at 5 mM
  Cell viability relative to control groups: ~50%
[2]; at 10 mM
  Cell viability relative to control groups: ~40%

## CCC(=O)OC[C@@H](O)[C@H](O)[C@@H](O)COC(=O)CC [XylPr2]
[3]; [10]
  Post-thaw recovery (%) 0-hr: 52.1 ± 4.8%
  Post-thaw recovery (%) 24-hr: 49.7 ± 1.1%
  Post-thaw recovery (%) 48-hr: 90.0 ± 4.3%
